From a melting point compilation (Tetko et al.; mined from patent text by program, amines drawn as free bases though some values may be those of a salt) come the findings set out here.

Each structure is given as a SMILES string.

The melting point is the temperature, or range, at which the solid turns liquid.

`Nc1sc2c(c1C(=O)c1ccc(Br)cc1)CCN(C(=O)Nc1ccccc1)C2`: the melting point was 89 to 90 °C.
The value for `CCc1cc(C(=O)O)ccc1N=C1SCC2(CCCC2)N1C1CCCC1` was 208 to 209 °C; that for `Clc1ccc(Cn2cc(CCn3ccnc3)c3ccccc32)cc1` was 78 to 80 °C; that for `Cc1cccc(OC2=NS(=O)(=O)N=C(Oc3cccc(C)c3)N2C)c1` was 221 to 223 °C.
Compound `CC(C)(C)OC(=O)NCc1cc(N)ccc1Cl` displayed a melting point of 75 to 77 °C.
The same measure for `COC(=O)c1cc(-c2ccc(C)cc2)n(-c2ccc(S(N)(=O)=O)cc2)n1`: 138 to 139 °C; for `CSc1ccc(NC(=O)N(C)O)cc1C(F)(F)F`: 125 °C; for `O=C(O)CC[C@H](NC(=O)c1cc2ccccc2[nH]1)C(=O)NC(c1ccc(Cl)cc1)c1ccc(Cl)cc1`: 207 °C.
`O=S1(=O)Cc2ccc(F)cc2C(c2ccc(F)cc2)=NN1` showed a melting point of 196 to 200 °C.
The value for `O=c1[nH]c2ncc(-c3ccccc3)nc2n1CC1CCCCC1` was 253 to 255 °C; that for `CCCCCCCCCCCCCSc1nnc(NC(=O)Nc2c(C(C)C)cccc2C(C)C)[nH]1` was 131 to 135 °C.
As to `CCCc1n[nH]c(=O)n1C`, the melting point amounted to 77 °C.
Compound `CCCOc1ccc(C(=O)O)cc1-c1ccc(C#N)c(=O)[nH]1` showed a melting point of 277 to 279 °C.
`COc1ccc(C(=O)Nc2cc(NC(=O)c3cccc(N(C)S(C)(=O)=O)c3)ccc2C)cc1OC` gave a melting point of 168 to 169 °C.
In the case of `O=C(NCc1ccccc1)c1cc(N2CCN(Cc3ccc(F)cc3)C2=O)n[nH]1`, the melting point lay in the range of 262 to 263 °C.
For `COc1ccc(CC(=O)c2c(OC)cc(OC)cc2OC)c(OC)c1`, the melting point was 109 to 111 °C.
The value for `Cc1cc2c(OCc3ccc(-c4nnn[nH]4)cc3)cccc2o1` was 196 to 197 °C.
The compound `COC(=O)c1cc(OC)c(C(=O)OC)cc1OC` showed a melting point of 141 to 143 °C.
The value for `CCOc1ccc(-c2ccc3c(c2)C=C(C(=O)Nc2ccc(CN(C)C4CCC(=O)CC4)cc2)CCO3)cc1` was 146 to 148 °C.
The compound `COc1ccc(COc2ccc(COc3ccc4c(c3)CCC(CN(C)C)C4)cc2)cc1` (stereo not drawn) returned a melting point of 106 to 111 °C.
Consider `N#CC1(N2CCN(c3ccc(N4CC(CCC(N)=O)OC4=O)cc3F)CC2)CCOCC1` (stereo not drawn), for which the melting point is 134 to 137 °C.
`C#CC1C2=C(c3ccc(OCc4ccccc4[N+](=O)[O-])cc3N1C(=O)Oc1ccccc1)C(O[Si](C)(C)C(C)(C)C)CCC2` (stereo not drawn) registered a melting point of 188 to 190 °C.
For `CN(C(=O)OC[C@@]1(C)Cn2cc([N+](=O)[O-])nc2O1)c1ccc(OC(F)(F)F)cc1`, the melting point fell in the range of 144 to 145 °C.
With `COc1ccc2nc(-c3c[nH]c4ccccc34)[nH]c(=O)c2c1`, the melting point lay within 311 to 312 °C.
For `CN1CCC[C@H]1COc1ccc(/C=C/C(=O)O)cc1`, the melting point turned out to be 251 °C.
The same measure for `COc1cc(C(=O)N2CCC(CCOS(C)(=O)=O)(c3ccc(Cl)c(Cl)c3)C2)cc(OC)c1OC` (stereo not drawn): 64 to 66 °C; for `Cc1cc(CNC(=O)c2cc(-c3ccc(C(C)(C)C)cc3)nn2CC(=O)c2ccccc2)ccc1OC(C)(C)C(=O)O`: 116 °C.
Consider `O=C1Nc2cc(Cl)ccc2C(=O)C1c1coc2ccccc12` (stereo not drawn), for which the melting point is 290 °C.
For `Cc1cc(C2=NOC(O)(C(F)(F)F)C2Cl)c(F)cc1Cl` (stereo not drawn), the melting point was in the range of 90 to 91 °C.
With `CCc1nn(C2CCCC2)c2cc(C3=NOC(C)(c4noc(-c5cc(OC)cc(OC)c5)n4)C3)ccc12` (stereo not drawn), the melting point fell in the range of 154 to 155 °C.
Compound `Clc1ccc(-c2n[nH]c3cc4ccccc4cc23)cc1` registered a melting point of 192 °C.
The same measure for `CC(=O)c1cc(Br)c(OP(=O)(O)O)c(Br)c1`: 149 to 154 °C.
Regarding `CCN1c2ncc(CC(O)c3ccncc3)cc2C(=O)N(C)c2ccc(F)nc21` (stereo not drawn), the melting point was in the range of 174 to 176 °C.
